In patent publication US10306886B2, “Lactam solubility” (Conopco, Inc., priority 2015, dated 2019):

Assay: Lactam solubility in water or water+alcohol (48 hours agitation, filtration, HPLC quantification)
Type: physicochemical
Design: key to Solubility Increase vs water alone: fold increase in dissolved lactam relative to water alone
Method: Excess solid lactam (˜3 mg) was placed in a Whatman® Mini Uniprep sample vial, fitted with a 0.45 μm nylon filter. Water or water+alcohol (500 μL) was added the mixture shaken and tapped briefly to initially disperse the solid and the mixture then agitated for 48 hours using a plate shaker fitted with a vial holder (see image below). After 48 hours, the solid was removed from the system by pressing down the plunger with integral filter on the vial (see image below). This removes the solid and provides filtered solution within the inner chamber which is then ready for analysis.
The level of lactam dissolved in solution was quantified using HPLC analysis. Samples were analysed on an Agilent 1200® series HPLC fitted with a Thermo Hypersil® Gold C18 column (15×2.1×3 μm), isocratic elution with 60/40 methanol/water (+0.1% Formic Acid), 0.4 mL/min flow rate, using a DAD detector at 285 nm. 4-(4-chlorophenyl)-5-methylene-pyrrol-2-one has a retention time of ˜2.8 minutes.
The absolute level of lactam in solution is measured and reported as an increase in solubility of lactam relative to water alone.

Mean Lactam Level in Solution (EtOH 0% in water): 6.2 ppm
Solubility Increase vs water alone (EtOH 0% in water): 1.00
Mean Lactam Level in Solution (EtOH 0.5% in water): 7.9 ppm
Solubility Increase vs water alone (EtOH 0.5% in water): 1.27
Mean Lactam Level in Solution (EtOH 1% in water): 8.9 ppm
Solubility Increase vs water alone (EtOH 1% in water): 1.44
Mean Lactam Level in Solution (EtOH 2% in water): 10.7 ppm
Solubility Increase vs water alone (EtOH 2% in water): 1.73
Mean Lactam Level in Solution (EtOH 5% in water): 13.4 ppm
Solubility Increase vs water alone (EtOH 5% in water): 2.16
Mean Lactam Level in Solution (EtOH 10% in water): 18.3 ppm
Solubility Increase vs water alone (EtOH 10% in water): 2.95
Mean Lactam Level in Solution (EtOH 25% in water): 82.1 ppm
Solubility Increase vs water alone (EtOH 25% in water): 13.24
Mean Lactam Level in Solution (EtOH 50% in water): 1800.2 ppm
Solubility Increase vs water alone (EtOH 50% in water): 290.35
Mean Lactam Level in Solution (Glycerol 0% in water): 5.7 ppm
Solubility Increase vs water alone (Glycerol 0% in water): 1.00
Mean Lactam Level in Solution (Glycerol 0.5% in water): 1.7 ppm
Solubility Increase vs water alone (Glycerol 0.5% in water): 0.29
Mean Lactam Level in Solution (Glycerol 1% in water): 2.3 ppm
Solubility Increase vs water alone (Glycerol 1% in water): 0.41
Mean Lactam Level in Solution (Glycerol 2% in water): 3.1 ppm
Solubility Increase vs water alone (Glycerol 2% in water): 0.54
Mean Lactam Level in Solution (Glycerol 5% in water): 5.2 ppm
Solubility Increase vs water alone (Glycerol 5% in water): 0.91
Mean Lactam Level in Solution (Glycerol 10% in water): 9.0 ppm
Solubility Increase vs water alone (Glycerol 10% in water): 1.59
Mean Lactam Level in Solution (Glycerol 25% in water): 15.8 ppm
Solubility Increase vs water alone (Glycerol 25% in water): 2.77
Mean Lactam Level in Solution (Glycerol 50% in water): 95.3 ppm
Solubility Increase vs water alone (Glycerol 50% in water): 16.72
Mean Lactam Level in Solution (MeOH 0% in water): 6.2 ppm
Solubility Increase vs water alone (MeOH 0% in water): 1.00
Mean Lactam Level in Solution (MeOH 0.5% in water): 7.5 ppm
Solubility Increase vs water alone (MeOH 0.5% in water): 1.20
Mean Lactam Level in Solution (MeOH 1% in water): 9.0 ppm
Solubility Increase vs water alone (MeOH 1% in water): 1.45
Mean Lactam Level in Solution (MeOH 2% in water): 8.2 ppm
Solubility Increase vs water alone (MeOH 2% in water): 1.32
Mean Lactam Level in Solution (MeOH 5% in water): 10.4 ppm
Solubility Increase vs water alone (MeOH 5% in water): 1.67
Mean Lactam Level in Solution (MeOH 10% in water): 15.7 ppm
Solubility Increase vs water alone (MeOH 10% in water): 2.52
Mean Lactam Level in Solution (MeOH 25% in water): 48.8 ppm
Solubility Increase vs water alone (MeOH 25% in water): 7.87
Mean Lactam Level in Solution (MeOH 50% in water): 315.6 ppm
Solubility Increase vs water alone (MeOH 50% in water): 50.90
Compound: C=C1NC(=O)C=C1c1ccc(Cl)cc1 [4-(4-chlorophenyl)-5-methylene-pyrrol-2-one]
